According to patent US20060199866A1, “Combination of desoxypeganine and mecamylanine for the treatment of alcohol abuse” (priority 2003, published 2006):

Columns and labels:
[1] = test system: female AA rats; assay: Reduction of alcohol consumption and alcohol preference in alcohol-preferring AA rats (free choice between water and 10% v/v ethanol); format: in vivo, rat; details: for Alcohol solution consumed: 10% aqueous ethanol
Text: The “AA” strain of rats, bred in Finland, has a genetically determined preference for alcohol, which means that even without pre-treatment with alcohol the animals, when given free choice, prefer alcohol-containing liquids, to alcohol-free liquids to satisfy their fluid requirement. This strain has therefore been used in numerous studies on the pharmacology of alcohol and is extremely well characterized.
Female AA rats (tested for alcohol preference and made available by the Public Health Institute in Helsinki) were housed individually and had free access to standard feed (Altromin 1324 granulate), the ambient temperature was 24±1° C. and the light-dark change was 12/12 hours (the dark period lasting from 6 p.m. to 6 a.m. Each cage contained two identical drinking bottles, of which one contained pure water and the other contained aqueous ethanol (10% v/v). During the 12-hour dark period the animals had access to the drinking bottles and during this period had free choice between the two solutions. To prevent the animals from becoming accustomed to a particular position in the cage, the positions of the bottles were changed daily. Prior to start of the tests, the animals were granted an adaptation phase until a largely constant alcohol and water consumption was ensured.
Deoxypeganine hydrochloride (called “DOP” in the following) was obtained from the Institute for the Pharmacology of Plants (Taschkent, Usbekistan) and supplied by the firm of LTS Lohmann Therapie-Systeme (Andemach, Germany) after checking for identity and purity. Mecamylamine was obtained as a commercial preparation from Sigma-Aldrich GmbH (Munich).
Treatment of the test animals always took place immediately prior to the start of the dark period. Mecamylamine was dissolved in 0.9% aqueous saline and a volume of 5 ml/kg body weight was administered by intraperitoneal injection. DOP was applied as an aqueous solution with a volume of 10 ml/kg by a probang.
In the case of combination treatments, this administration took place within a period of less than 10 minutes. Two treatment-free days were always interposed prior to and following the treatment days.
The parameters recorded were consumption of alcohol, consumption of water and consumption of feed (each in grams), as well as alcohol preference, calculated using the formula: [formula]
The target parameters were in each case traced during the 12 hours of the dark period following treatment, intermediate results were recorded after the first 4 hours and final results after 12 hours. Statistical evaluation of the test data was performed using the t-test for dependent values. The results in respect of consumption of alcohol and alcohol preference are summarized in FIGS. 1 and 2 as well as in Tables 1 and 2.

[2] = test system: extracellular dopamine concentration in the nucleus accumbens; details: nucleus accumbens of the rat; baseline dopamine release not impaired; cited from earlier work
[3] = test system: healthy probands; details: administered two hours prior to consumption of alcoholic beverages; cited from earlier work
[4] = cited from earlier work
[5] = target: T1, monoamine oxidase A (Homo sapiens, UniProt P21397); details: cited from earlier work
T1 sequence (P21397 1-527): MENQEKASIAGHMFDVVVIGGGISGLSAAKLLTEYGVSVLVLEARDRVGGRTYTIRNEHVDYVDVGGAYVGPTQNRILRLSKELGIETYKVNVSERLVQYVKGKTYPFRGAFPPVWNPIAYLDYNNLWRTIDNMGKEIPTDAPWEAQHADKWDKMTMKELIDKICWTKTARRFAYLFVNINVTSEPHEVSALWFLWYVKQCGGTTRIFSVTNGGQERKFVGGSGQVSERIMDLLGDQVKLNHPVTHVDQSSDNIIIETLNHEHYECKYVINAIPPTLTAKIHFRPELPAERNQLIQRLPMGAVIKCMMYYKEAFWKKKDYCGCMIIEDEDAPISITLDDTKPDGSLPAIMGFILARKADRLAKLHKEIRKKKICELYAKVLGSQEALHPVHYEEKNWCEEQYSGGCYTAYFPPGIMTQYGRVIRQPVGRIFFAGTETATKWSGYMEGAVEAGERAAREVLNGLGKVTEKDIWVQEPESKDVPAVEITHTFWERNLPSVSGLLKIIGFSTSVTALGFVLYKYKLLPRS

[6] = test system: neuronal nicotinic acetylcholine receptors (NACHRs); details: in pharmacologically relevant concentrations; cited from earlier work
[7] = Trial 2, Mec 1 mg/kg i.p., After 4 hours
[8] = Trial 2, Mec 1 mg/kg i.p., After 8 hours (subsequent eight hours)
[9] = Trial 2, Mec 1 mg/kg i.p., Total (12 hours)
[10] = Trial 1, DOP 20 mg/kg p.o., After 4 hours
[11] = Trial 1, DOP 20 mg/kg p.o., After 8 hours (subsequent eight hours)
[12] = Trial 1, DOP 20 mg/kg p.o., Total (12 hours)
[13] = Trial 2, DOP 20 mg/kg p.o., After 4 hours
[14] = Trial 2, DOP 20 mg/kg p.o., After 8 hours (subsequent eight hours)
[15] = Trial 2, DOP 20 mg/kg p.o., Total (12 hours)

`CNC1(C)C2CCC(C2)C1(C)C` (racemic) [Mec, reference compound] gave an Alcohol solution consumed [1, 7] of 5.4 ± 0.5 gram, an Alcohol solution consumed [1, 8] of 10.1 ± 0.4 gram and an Alcohol solution consumed [1, 9] of 15.5 ± 0.5 gram. The “Effect on consumption of alcohol and alcohol preference” value (“Effect on consumption” for short) ([1]; Mecamylamine 1 mg/kg i.p. administered singly) was “no effect”, the “Effect on consumption” value ([1]; Mecamylamine 1 mg/kg i.p. combined with DOP 20 mg/kg p.o.) was “potentiated the effect of DOP on both parameters” and the Alcohol preference [1, 7] was 85.3 ± 4.2%. The Alcohol preference [1, 8] was 87.8 ± 3.1%, the Alcohol preference [1, 9] was 86.3 ± 2.6% and the “Effect on consumption” value ([1]; mecamylamine 0.5 mg/kg i.p. combined with DOP 20 mg/kg p.o.) was “without effect with regard to alcohol”. The “Effect on consumption” value ([1]; mecamylamine 0.75 mg/kg i.p. combined with DOP 20 mg/kg p.o.) was “without effect with regard to alcohol”, the “Effect on consumption” value ([1]; mecamylamine dosage increased to 1.5 mg/kg i.p., combined with DOP 20 mg/kg p.o.) was “potentiating effect could not be increased further” and the “Blockade of alcohol-induced increase in extracellular dopamine concentration” value [2] was “completely blocks”. For the same compound, the “Effect on the centrally stimulating psychotropic effect of alcohol” value [3] was “reduced the centrally stimulating psychotropic effect” and the Oral bioavailability [4] was roughly 100%.
With `c1ccc2c(c1)CN1CCCC1=N2` [DOP, 1,2,3,9-tetrahydropyrrollo[2,1-b]chinazoline] the Alcohol solution consumed [1, 10] was 5.2 ± 0.6 gram, the Alcohol solution consumed [1, 11] was 10.2 ± 0.6 gram and the Alcohol solution consumed [1, 12] was 15.4 ± 1.1 gram. It also gave an Alcohol solution consumed [1, 13] of 5.8 ± 0.6 gram, an Alcohol solution consumed [1, 14] of 10.7 ± 0.5 gram and an Alcohol solution consumed [1, 15] of 16.6 ± 0.6 gram. For the same compound, the “Effect on consumption” value ([1]; DOP 20 mg/kg p.o., preferably within the first 4 hours after administration) was “lowered the consumption of alcohol and alcohol preference”, the Alcohol preference [1, 10] was 57.4 ± 7.1% and the Alcohol preference [1, 11] was 82.0 ± 4.0%. For the same compound, the Alcohol preference [1, 12] was 70.5 ± 4.5%, the Alcohol preference [1, 13] was 55.6 ± 7.6% and the Alcohol preference [1, 14] was 88.0 ± 2.1%. For the same compound, the Alcohol preference [1, 15] was 72.7 ± 4.3%, the “Inhibition of monoamine oxidase A” value [5] was “inhibits monoamine oxidase A” and the “Binding to NACHRs” value [6] was “does not bind to NACHRs”.
For `O=C1CC[C@@]2(O)[C@H]3Cc4ccc(O)c5c4[C@@]2(CCN3CC2CC2)[C@H]1O5` [naltrexone], the Oral bioavailability [4] is listed as “approx. 5%”.
